From ChEMBL document CHEMBL3588842, “Discovery of Selective Small-Molecule Inhibitors for the β-Catenin/T-Cell Factor Protein-Protein Interaction through the Optimization of the Acyl Hydrazone Moiety” (J Med Chem, 2015) come the findings set out here.

Activity calls are given as the source filed them. No cut-off for these calls is given here.

The subject of assay [1] is SW480. In words: Cytotoxicity against human SW480 cells assessed as inhibition of cell growth after 72 hrs by MTS assay.
In the next assay the test system is HEK293. In words: Inhibition of interaction of beta-catenin (unknown origin) transfected in Wnt-activated HEK293 cells/Tcf4 assessed as decrease in transactivation of canonical Wnt signaling by TOPflash luciferase reporter assay. Conditions: Homo sapiens.
Assay [2] deals with HCT-116. In words: Cytotoxicity against human HCT116 cells assessed as inhibition of cell growth after 72 hrs by MTS assay.
In the next assay the test system is HT-29. The experiment in a line: cells. Conditions: Homo sapiens, HT-29, 72 h.
In assay [3] the test system is SW480. In words: cells. As to conditions: Homo sapiens, SW480, 72 h.
Assay [4] deals with HCT-116. In words: cells. As to conditions: Homo sapiens, HCT-116, 72 h.
The target in assay [5] is T1, Catenin beta-1 (Homo sapiens, UniProt P35222).
T1 sequence (P35222 whole entry): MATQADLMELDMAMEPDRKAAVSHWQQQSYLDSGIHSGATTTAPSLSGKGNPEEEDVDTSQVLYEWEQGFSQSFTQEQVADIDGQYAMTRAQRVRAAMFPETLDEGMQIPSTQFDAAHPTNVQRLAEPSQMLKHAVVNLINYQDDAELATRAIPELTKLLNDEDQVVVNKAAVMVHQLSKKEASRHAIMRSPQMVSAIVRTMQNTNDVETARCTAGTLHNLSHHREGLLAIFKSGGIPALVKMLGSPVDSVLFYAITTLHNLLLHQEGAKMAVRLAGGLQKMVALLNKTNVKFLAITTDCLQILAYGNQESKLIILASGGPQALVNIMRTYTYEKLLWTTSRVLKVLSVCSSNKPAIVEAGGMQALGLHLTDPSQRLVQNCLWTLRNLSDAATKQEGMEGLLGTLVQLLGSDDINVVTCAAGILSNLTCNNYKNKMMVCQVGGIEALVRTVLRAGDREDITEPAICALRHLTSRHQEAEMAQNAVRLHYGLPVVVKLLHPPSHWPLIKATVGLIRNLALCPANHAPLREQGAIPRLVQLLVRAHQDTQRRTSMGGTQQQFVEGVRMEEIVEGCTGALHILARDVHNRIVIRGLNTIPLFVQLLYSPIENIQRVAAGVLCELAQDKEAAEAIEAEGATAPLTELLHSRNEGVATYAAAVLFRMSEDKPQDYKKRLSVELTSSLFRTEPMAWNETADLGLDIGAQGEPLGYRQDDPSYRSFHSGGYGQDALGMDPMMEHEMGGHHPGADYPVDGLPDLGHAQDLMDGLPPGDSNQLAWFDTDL
The experiment in a line: Inhibition of human wild-type beta-catenin (residues 138-686)/C-terminally fluorescein-labeled human E-cadherin (residues 819-873) interaction by FP competitive inhibition assay.

The target of assay [6] is T1, Catenin beta-1. The experiment in a line: Inhibition of human wild-type beta-catenin (residues 138-686)/C-terminally fluorescein labeled human wild-type Tcf4 (residues 7-51) interaction after […] by FP competitive inhibition assay.
The target in assay [7] is T1, Catenin beta-1. The experiment in a line: Inhibition of human wild-type beta-catenin (residues 138-686)/C-terminally fluorescein-labeled human APC-R3 (residues 1477-1519) interaction by FP competitive inhibition assay.
Assay [8] relates to SW480. The experiment in a line: Decrease in cyclin D1 mRNA expression in human SW480 cells at 2 uM after 24 hrs by quantitative real-time PCR analysis. The assay is classed as functional. As to conditions: SW480, 24 h.
For assay [9], the system named is SW480. The experiment in a line: Decrease in c-myc mRNA expression in human SW480 cells at 2 uM after 24 hrs by quantitative real-time PCR analysis. The assay is classed as functional. Conditions: SW480, 24 h.
For assay [10], the system named is SW480. In words: Decrease in AXIN2 mRNA expression in human SW480 cells at 2 uM after 24 hrs by quantitative real-time PCR analysis. It is filed as functional. Conditions: SW480, 24 h.
In assay [11] the test system is SW480. The experiment in a line: Effect on beta-catenin degradation in human SW480 cells assessed as beta-catenin protein expression after 24 hrs by western blot analysis. It is filed as functional, cell-based.
Assay [12] relates to SW480. The experiment in a line: Effect on HPRT mRNA expression in human SW480 cells after 24 hrs by quantitative real-time PCR analysis. The assay is classed as functional, cell-based.
The nature of assay [13]: Inhibition of interaction of beta-catenin (unknown origin) transfected in Wnt-activated HEK293 cells/Tcf4 assessed as decrease in transactivation of canonical Wnt signaling by TOPflash luciferase reporter assay. As to conditions: Homo sapiens.
Assay [14] concerns beta-catenin R469A mutant/Tcf4 (human). The experiment in a line: Inhibition of human beta-catenin R469A mutant interaction with Tcf4 by fluorescence polarization competitive inhibition assay.
Assay [15] in a line: Inhibition of beta-catenin/Tcf4 interaction in human SW480 cells assessed as decrease in transactivation of canonical Wnt signaling by TOPflash luciferase reporter assay.

As to `CCOC(=O)CCCn1c2ccccc2c2nc3nonc3nc21`, the inhibition result in the assay with SW480 [1], in the assay on HEK293 and in the assay on HCT-116 [2] was “inactive” throughout.
Take `COc1c(C[C@H](C)O)c2c3c(C[C@H](C)O)c(OC)c(=O)c4c(O)cc5c(c6c(cc(O)c(c1=O)c62)OCO5)c43`: the IC50 in the assay with HT-29 is 1.8 µM; in the assay on SW480 [3], 5.5 µM; in the assay with HCT-116 [4], 1.2 µM.
With `COc1c(C[C@@H](C)OC(=O)Oc2ccc(O)cc2)c2c3c(C[C@@H](C)OC(=O)c4ccccc4)c(OC)c(=O)c4c(O)cc(OC)c(c5c(OC)cc(O)c(c1=O)c52)c43` [CALPHOSTIN C], the figures for the concentration for half-maximal inhibition (IC50) on Catenin beta-1 [5], on Catenin beta-1 [6] and on Catenin beta-1 [7] were 38 µM, 77 µM and 110 µM, respectively.
As for `Nc1nonc1C(=O)N/N=C1/c2ccccc2-c2nc3nonc3nc21`, the inhibition at 2 µM with SW480 [8], in the assay with SW480 [9] and with SW480 [10] was greater than 50% throughout. The outcome in the assay with SW480 [11] and in the assay on SW480 [12] was inactive.
As for `N#CCCn1c2ccccc2c2nc3nonc3nc21`, the 50% inhibitory concentration (IC50) with SW480 [3] was determined as 52 µM; with HCT-116 [4] it was 0.02 µM.
For the compound `O=C(O)c1ccc2nc(-c3ccc(Cl)cc3)c(-c3ccc(Cl)cc3)nc2c1`, the IC50 was 41 µM in the assay on HT-29, greater than 100 µM in assay [13], 38 µM in the assay on SW480 [3] and 22 µM in the assay with HCT-116 [4].
`c1ccc2c(c1)c1nc3nonc3nc1n2CCc1nn[nH]n1`: the figures for the concentration for half-maximal inhibition (IC50) (in assay [13]; in the assay on SW480 [3]; in the assay with HCT-116 [4]) were 26 µM, greater than 200 µM and 31 µM, respectively. The result in the assay with SW480 [12] was inactive.
In the case of `Nc1nonc1NC(=O)Cn1c2ccccc2c2nc3nonc3nc21`, the inhibition entry in the assay on SW480 [1], in the assay on HEK293 and in the assay on HCT-116 [2] was “inactive” each time. In assay [14], this compound registered an inhibitory constant (Ki) of 42 µM.
As for `COc1ccc(/C=C2/SC(=S)N(CCCC(=O)O)C2=O)cc1OC`, the 50% inhibitory concentration (IC50) in the assay with HT-29 came to 290 µM; with SW480 [3], 240 µM; with HCT-116 [4], 180 µM; in assay [15], 4 µM.
With `COC(=O)CCn1c2ccccc2c2nc3nonc3nc21`, the inhibition result in the assay with SW480 [1], in the assay on HEK293 and in the assay on HCT-116 [2] was “inactive” each time.
For `O=C(O)c1cc(-c2ccc(Oc3ccc(Cl)cc3)cc2)on1`, the IC50 in [13] was 39 µM.
On the same count and under the same terms, the value for `O=C(O)c1cc2nc(-c3ccc4c(c3)OCO4)c(-c3ccc4c(c3)OCO4)nc2cc1O` was greater than 100 µM.
On to `O=C(O)CCCn1c2ccccc2c2nc3nonc3nc21`, for which the inhibition result with SW480 [1], in the assay with HEK293 and with HCT-116 [2] was “inactive” each time.
